{"source": "patent US10407712B2", "about": "“Methods, compositions and kits for high throughput kinase activity screening using mass spectrometry and stable isotopes” (President and Fellows of Harvard College, priority 2008, dated 2019)", "key": {"HEK293 cells [1]": {"tested_on": "HEK293 cells", "experiment": "Single-reaction KAYAK of HEK293 cells treated with kinase inhibitors followed by insulin stimulation", "format": "cell-based, human", "conditions": "HEK293, inhibitor 30 min then 100 nM insulin 30 min"}, "HEK293 cells [2]": {"tested_on": "HEK293 cells", "experiment": "KAYAK of lysates from HEK293 cells pretreated with inhibitors before mitogen stimulation", "format": "cell-based, human", "method": "For drug inhibition studies, cells were pretreated with U0126 (5 μM) or Wortmannin (100 nM) for 1 hr prior to hormone stimulation.\n(§1) Peptides were synthesized, purified and quantified as described in Yu et al. 2009 Proc Natl Acad Sci USA 106: 11606-11611, hereby incorporated by reference herein in its entirety. Each substrate peptide (250 pmol) was mixed to a final concentration of 5 μM in the 50 μL reaction mixture. Alternatively, reactions were performed using 6 μg cell lysate aliquotes mixed to a final volume of 20 μl. Cell lysate or other kinase source was added to the substrate mixture in 25 mM Tris-Cl, pH 7.5, containing 5 mM ATP, 7.5 mM MgCl2, 0.2 mM EGTA, 7.5 mM β-glycerophosphate, 0.1 mM Na3VO4, and 0.1 mM DTT. The reaction was incubated at 25° C. for 60 min and then terminated by the addition of 100 μl of 1% trifluoroacetic acid (TFA) containing a known amount of an internal standard (typically 20 pmol). Alternatively, the reaction was incubated at 20° C. for 45 min before termination with TFA.\nThe KAYAK method was applied to measure the effect of pharmacological inhibitors or siRNA-mediated knockdown of kinase pathways after mitogen stimulation (see FIGS. 5A-5D and 8 for data obtained by immunoblotting analysis of cell lysates). […] EGF stimulated cell lysates strongly phosphorylated peptides B6, C6, C11 and G5 and these effects were blocked by pretreating cells with the MEK-specific inhibitor U0126.\nIn contrast, phosphorylation levels of these peptides were not changed as a result of insulin stimulation. […] PMA activates the MAPK pathway by activating the upstream kinase, PKC (Blenis et al. 1993 Proc Natl Acad Sci USA 90: 5889-5892). Because the observed increase in phosphorylation was reversed by prior treatment of cells with U0126, it was concluded that these peptides were not PKC substrates. Rather they were likely phosphorylated by kinases downstream of the MAPK pathway.\n(§2) It was observed that basal phosphorylation of these peptides was not affected by knockdown and likely was the result of remaining RSK isoforms or other basophilic kinases (FIG. 5C)."}, "HEK293 cell lysates [3]": {"tested_on": "HEK293 cell lysates", "experiment": "Single-reaction 90-substrate KAYAK assay, HEK293 lysates with or without insulin", "format": "biochemical, human", "conditions": "for phosphorylation in response to insulin stimulation: 5 μM each peptide, HEK293 lysate", "method": "(§3) For stimulation of HEK293 cells or HeLa lines, cells were treated with insulin (100 nM; 10-30 min) EGF (50 ng/ml; 10 min) or phorbol 12-myristate 13-acetate (PMA; 50 or 100 ng/ml; 10 -30 min) at 37° C. for the indicated times after overnight serum-starvation.\nAlternatively, cells were washed with PBS once and lysed with ice-cold lysis buffer, 10 mM potassium phosphate, pH 7.0, containing 0.5% NP-40, 0.1% Brij 35, 0.1% deoxycholic acid, 1 mM ethylenediaminetetraacetic acid (EDTA), 5 mM ethylene glycol tetraacetic acid (EGTA), 10 mM MgCl2, 50 mM β-glycerophosphate, 1 mM Na3VO4, 2 mM dithiothreitol (DTT) and protease inhibitor cocktail (Complete, Roche Applied Science, Indianapolis, Ind.). Homogenates were centrifuged at 10,000 rpm for 15 min at 4° C., and the supernatant was used as lysate. Protein concentration was quantified by a modified Bradford assay (Pierce).\nas §1\nInternal standard heavy peptides (5 pmol each) were added as a mixture to the terminated reactions followed by desalting with a solid phase extraction cartridge (SepPak tC18 (50 mg), Waters, Milford, Mass.). Phosphopeptides were enriched as described (Villen et al. 2008 Nat Protoc 3: 1630-1638). […]\nFor KAYAK analyses, phosphopeptides were dissolved in 5% FA and injected onto a 125-μm-internal diameter fused silica column packed with Magic C18 AQ material (Michrom Bioresources, Auburn, Calif.). Peptides were separated using a two-solvent system: solvent A (0.125% FA and 3% ACN in H2O), solvent B (0.125% FA in ACN) over 32 min gradient, and eluting peptides were directly analyzed using an LTQ-Orbitrap mass spectrometer (Thermo Scientific, San Jose, Calif.) equipped with the electron transfer dissociation option. […]"}, "HeLa cell lysates": {"tested_on": "HeLa cell lysates", "experiment": "KAYAK in vitro kinase assay, lysates of asynchronous, G1/S- or G2/M-arrested HeLa cells", "format": "biochemical, human", "conditions": "G2/M phase compared to asynchronously growing HeLa cells", "method": "For cell cycle examples, HeLa cells were synchronized by double thymidine block for G1/S-arrest and by 0.2 μg/ml nocodazole for G2/M-arrest as described (Dephoure et al. 2008 Proc Natl Acad Sci USA 105: 10762-10767). Synchronization was confirmed by flow cytometry.\n(§4) For cell lysis, the media were removed, and cells were washed with ice-cold phosphate-buffered saline (PBS) and lysed with ice-cold lysis buffer (10 mM K2HPO4 pH 7.5, 1 mM EDTA, 10 mM MgCl2, 50 mM β-glycerophosphate, 5 mM EGTA, 0.5% Nonidet P-40, 0.1% Brij 35, 0.1% deoxycholic acid, 1mM sodium orthovanadate, 1mM phenylmethyl-sulfonyl fluoride, 5 μg/ml leupeptin and 5 μg/ml pepstatin A). Lysates were centrifuged at 10,000 rpm for 10 min to remove cell debris, and clear supernatant was used for immunoblotting and in vitro kinase assays. Protein concentration was determined by Bradford assay (Biorad, Hercules, Calif.).\nas §1\n(§5) Forty-five individual in vitro kinase reaction mixtures were combined and desalted by using Sep-Pak C18 cartridge (Waters, Milford, Mass.). Phosphopeptides were enriched by immobilized metal ion chromatography (IMAC) with 20 μl of beads (Phos-Select iron affinity gel; Sigma, St. Louis, Mo.) and subsequently desalted by using Empore C18 solid phase extraction disks (3M, St. Paul, Minn.) as described previously.\n(§6) Quantitation of the target peptide-internal standard ratios was performed by first constructing the extracted ion chromatogram for the most abundant charge state for each peptide using a ±10 ppm window. Chromatograms were integrated using Qual/Quan browser (Xcalibur 2.0.5, Thermo Fisher, San Jose, Calif.). Since the phosphorylated peptides generated from the in vitro kinase reactions were chemically identical to the internal standards, they were assumed to have the same ionization efficiency. Therefore, the amount of each phosphorylated peptide was calculated by direct ratio to the internal standard level.\n(§7) To test substrate suitability in a multiplexed assay, the phosphorylation activities were measured using […] of each substrate peptide, 6 μg lysate, and 5 mM ATP in a plate format. Reactions proceeded for 60 minutes followed by acidification and the addition of isotope-labeled reference peptides. After pooling 45 samples, phosphopeptide enrichment was followed by liquid-chromatography (LC) separation and on-line peptide detection by high-resolution mass spectrometry.\nIn order to examine target peptides with cell-cycle-dependent phosphorylation, kinase activities in asynchronously growing HeLa cells were profiled and the profiles were compared with those of cells synchronized in G1/S and G2/M phase using a double-thymidine block and nocodazole arrest, respectively (FIG. 3B)."}, "HEK293 cell lysates [4]": {"tested_on": "HEK293 cell lysates", "experiment": "KAYAK in vitro kinase assay, individual reactions, lysates of starved, insulin- or EGF-stimulated HEK293 cells", "format": "biochemical, human", "conditions": "for E: changed phosphorylation in EGF stimulated condition: EGF-stimulated compared to starved HEK293 cells; for increase in phosphorylation after EGF: EGF-stimulated vs serum-starved HEK293 lysate; for increase in phosphorylation after insulin: insulin-stimulated vs serum-starved HEK293 lysate", "method": "as §3, §4, §1, §5, §6, §7\nThe ability of the peptides to report specific changes in kinase activation after pathway stimulation was examined herein. Lysates from HEK293 cells were collected after insulin or EGF treatment and were compared to their activities in the serum-starved state using the KAYAK approach. Western blot analysis of lysates from cells in which the PI3K and MAPK pathways were activated, as indicated by elevated phospho-Akt and phospho-ERK1/2 levels, respectively, is shown in FIG. 1D. […]"}, "recombinant RSK1": {"target": "T1, recombinant RSK1 (Homo sapiens, UniProt Q15418)", "T1 construct": "90 kDa ribosomal S6 kinases 1 (RSK1, 1-735); purchased Cell Signaling Technology (Danvers, Mass.)", "T1 sequence (Q15418 whole entry)": "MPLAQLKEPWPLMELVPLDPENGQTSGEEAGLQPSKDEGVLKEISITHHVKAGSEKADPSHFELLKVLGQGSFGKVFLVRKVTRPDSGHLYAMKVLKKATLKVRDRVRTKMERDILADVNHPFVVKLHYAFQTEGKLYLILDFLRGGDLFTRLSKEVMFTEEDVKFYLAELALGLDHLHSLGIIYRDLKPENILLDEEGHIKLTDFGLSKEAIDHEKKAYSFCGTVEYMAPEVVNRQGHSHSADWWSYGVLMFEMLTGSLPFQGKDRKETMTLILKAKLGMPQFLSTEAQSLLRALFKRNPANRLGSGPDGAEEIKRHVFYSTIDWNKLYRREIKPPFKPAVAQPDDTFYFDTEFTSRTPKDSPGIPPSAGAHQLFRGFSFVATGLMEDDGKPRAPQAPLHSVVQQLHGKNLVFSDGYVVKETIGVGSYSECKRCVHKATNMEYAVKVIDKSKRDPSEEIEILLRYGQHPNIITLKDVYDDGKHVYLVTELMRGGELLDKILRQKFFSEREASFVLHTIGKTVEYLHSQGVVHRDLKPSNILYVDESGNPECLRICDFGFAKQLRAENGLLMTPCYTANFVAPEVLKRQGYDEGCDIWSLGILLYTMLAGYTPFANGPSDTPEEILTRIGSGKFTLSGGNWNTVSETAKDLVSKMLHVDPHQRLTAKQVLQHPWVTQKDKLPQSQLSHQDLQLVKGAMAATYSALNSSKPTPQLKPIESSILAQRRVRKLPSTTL", "experiment": "In vitro peptide phosphorylation by purified RSK", "format": "biochemical", "description": "(§8) Reaction mixture was supplemented with 0.1% BSA. Other conditions were the same as in FIG. 10A.\n(§9) Purified human active kinases of Akt1 (full length), extracellular signal-regulated kinase 1 (ERK1, 1-379), mitogen-activated protein kinase kinase 1 (MEK1, 1-393), 90 kDa ribosomal S6 kinases 1 (RSK1, 1-735), cAMP-dependent protein kinase (PKA) catalytic subunit-α (PKA Cα, 1-351), protein kinase Cα (PKCα, full length), epidermal growth factor (EGF) receptor (EGFR, 672-1210), platelet-derived growth factor (PDGF) receptor α (PDGFRα, 550-1090), vascular endothelial growth factor (VEGF) receptor 1 (VEGFR1 784-1338), Src (full length), casein kinase 2 (CK2, full length), Aurora A (1-403), AMP-activated protein kinase α1β1γ1 (AMPK α1β1γ1, full length), glycogen synthase kinase-3α (GSK-3α, 1-483) and MAP/microtubule affinity-regulating kinase 1 (MARK 1, full length) were obtained from Cell Signaling Technology (Danvers, Mass.). Cdc2/cyclin B1 (full length) and insulin-like growth factor (IGF)-I receptor (IGFIR, 959-1367) were obtained from Upstate (Temecula, Calif.).\nas §1, with “Each substrate peptide (250 pmol) was mixed to a final concentration of 5 μM in the 50 μL reaction mixture.” left out\nas §2"}, "activated, purified Akt": {"target": "T2, activated, purified Akt (Homo sapiens, UniProt P31749)", "T2 construct": "Purified human active kinases of Akt1 (full length); purchased Cell Signaling Technology (Danvers, Mass.)", "T2 sequence (P31749 whole entry)": "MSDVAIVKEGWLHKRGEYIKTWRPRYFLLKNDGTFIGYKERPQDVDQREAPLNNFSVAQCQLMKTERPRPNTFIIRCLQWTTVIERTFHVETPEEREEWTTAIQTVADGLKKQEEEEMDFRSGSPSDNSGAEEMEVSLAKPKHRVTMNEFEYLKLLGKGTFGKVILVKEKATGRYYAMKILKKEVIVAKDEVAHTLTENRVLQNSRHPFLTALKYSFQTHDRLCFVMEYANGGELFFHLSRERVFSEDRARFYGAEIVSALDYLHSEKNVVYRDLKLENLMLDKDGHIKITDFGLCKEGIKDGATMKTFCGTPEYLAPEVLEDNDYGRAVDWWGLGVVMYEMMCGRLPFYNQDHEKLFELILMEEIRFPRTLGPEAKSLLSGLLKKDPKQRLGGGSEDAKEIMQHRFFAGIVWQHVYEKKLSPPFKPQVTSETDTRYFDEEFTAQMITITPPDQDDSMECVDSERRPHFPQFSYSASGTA", "experiment": "In vitro peptide phosphorylation by purified Akt", "format": "biochemical", "conditions": "control, 2 ng purified kinase", "description": "as §8, §9\nPeptides were synthesized, purified and quantified as described in Yu et al. 2009 Proc Natl Acad Sci USA 106: 11606-11611, hereby incorporated by reference herein in its entirety. […] Alternatively, reactions were performed using 6 μg cell lysate aliquotes mixed to a final volume of 20 μl. […]"}}}
{"compound": "O=c1[nH]c2ccccc2n1C1CCN(Cc2ccc(-c3nc4cc5[nH]cnc5cc4nc3-c3ccccc3)cc2)CC1", "note": "[Akt inhibitor VIII]", "values": [{"measurement": "effect on phosphorylation rate of the A3 peptide", "setting": "HEK293 cells [1]", "result": "decreased"}]}
{"compound": "C[S+]([O-])c1ccc(-c2nc(-c3ccncc3)c(-c3ccc(F)cc3)[nH]2)cc1", "note": "(stereo not drawn) [SB203580]", "values": [{"measurement": "effect on insulin-stimulated phosphorylation of peptide E11", "setting": "HEK293 cells [1]", "result": "paradoxical upregulation"}]}
{"compound": "N#CC(=C(/N)Sc1ccccc1N)/C(C#N)=C(\\N)Sc1ccccc1N", "note": "[U0126]", "values": [{"measurement": "effect on EGF-stimulated phosphorylation of peptides B6, C6, C11 and G5", "setting": "HEK293 cells [2]; 5 μM, 1 hr pretreatment, HEK293", "result": "blocked"}, {"measurement": "RSK-equivalent activity of lysate, peptide C6 as substrate", "setting": "HEK293 cells [2]; cells pretreated with U0126 then stimulated with EGF, EGF alone approximately 0.6 ng per μg", "result": 0.2, "unit": "ng RSK/μg lysate"}, {"measurement": "effect on PMA-induced increase in phosphorylation of RSK peptides", "setting": "HEK293 cells [2]; prior treatment of cells, HEK293", "result": "reversed"}, {"measurement": "effect on insulin-stimulated phosphorylation of peptide E11", "setting": "HEK293 cells [1]", "result": "blocked"}]}
{"compound": "RKRLISSVEDPFR (The sequence was designed and synthesized) [E11]", "values": [{"measurement": "phosphorylation in response to insulin stimulation", "setting": "HEK293 cell lysates [3]", "result": "increased phosphorylation"}, {"measurement": "increase of phosphorylation rate with insulin", "setting": "HEK293 cell lysates [3]; HEK293", "result": "more than 2 fold"}, {"measurement": "G2/M: changed phosphorylation", "setting": "HeLa cell lysates", "result": "− (A change of more +2 fold and −2 fold is indicated by “+” and “−”, respectively.)"}, {"measurement": "E: changed phosphorylation in EGF stimulated condition", "setting": "HEK293 cell lysates [4]", "result": "+ (A change of more +2 fold and −2 fold is indicated by “+” and “−”, respectively.)"}, {"measurement": "increase in phosphorylation after EGF", "setting": "HEK293 cell lysates [4]", "result": 2.3, "unit": "fold"}, {"measurement": "increase in phosphorylation after insulin", "setting": "HEK293 cell lysates [4]", "result": 1.7, "unit": "fold"}]}
{"compound": "RPRAATFPFR (The sequence was designed and synthesized) [A3]", "values": [{"measurement": "phosphorylation in response to insulin stimulation", "setting": "HEK293 cell lysates [3]", "result": "increased phosphorylation"}, {"measurement": "E: changed phosphorylation in EGF stimulated condition", "setting": "HEK293 cell lysates [4]", "result": "+ (A change of more +2 fold and −2 fold is indicated by “+” and “−”, respectively.)"}, {"measurement": "increase in phosphorylation after EGF", "setting": "HEK293 cell lysates [4]", "result": 2.9, "unit": "fold"}, {"measurement": "I: changed phosphorylation in insulin stimulated condition", "setting": "HEK293 cell lysates [4]; insulin-stimulated compared to starved HEK293 cells", "result": "++ (A change of more than +4 and −4 fold is indicated by “++” and “−−”, respectively.)"}, {"measurement": "increase in phosphorylation after insulin", "setting": "HEK293 cell lysates [4]", "result": 4.6, "unit": "fold"}]}
{"compound": "TKRSGSVYEPPFR (The sequence was designed and synthesized) [C6]", "values": [{"measurement": "phosphorylation by recombinant RSK1 in vitro", "setting": "recombinant RSK1", "result": "robustly phosphorylate"}, {"measurement": "phosphorylation by Akt", "setting": "activated, purified Akt", "result": "not significantly phosphorylated"}, {"measurement": "G2/M: changed phosphorylation", "setting": "HeLa cell lysates", "result": "− (A change of more +2 fold and −2 fold is indicated by “+” and “−”, respectively.)"}, {"measurement": "E: changed phosphorylation in EGF stimulated condition", "setting": "HEK293 cell lysates [4]", "result": "+ (A change of more +2 fold and −2 fold is indicated by “+” and “−”, respectively.)"}]}
